The text below walks through data of US12202835B2, “Substituted aromatic ring-linked dioxinoquinazolines and dioxinoquinolines as kinase inhibitors” (BEIJING SCITECH-MQ PHARMACEUTICALS LIMITED, priority 2018, dated 2025).

Test [1] concerns the target c-MET kinase (Homo sapiens (Human), UniProt P08581). In words: Assay of small molecular compounds for inhibiting the activity of c-MET kinase (LANCE TR-FRET). The class given is biochemical. As to conditions: read-out: CMET IC50. The method in brief: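 LANCE TR-FRET assay with c-MET at 1 nM final after a 5 min room-temperature preincubation with compound (11-point, 3-fold series, 2500–0.042 nM final, 4% DMSO). ULight-JAK-1 (Tyr1023) peptide (100 nM final) and ATP (10 μM final) reacted 60 min in the dark. Inhibition was taken relative to controls, then IC50 fitted.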
On the technique in general: TR-FRET usually uses a lanthanide donor and a delayed reading to cut background.

Test [2] deals with MHCC97H cells. In words: Assay for inhibiting the proliferation of MHCC97H cells (CCK-8). The class given is cell-based. Conditions: Homo sapiens. The method in brief:
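Cells seeded in 96-well plates overnight, then exposed 72 h to 9 three-fold dilutions of compound (0.25% DMSO final). Viability by CCK-8 (1-2 h at 37° C., OD 450 nm), survival normalized to untreated and cell-free blanks; IC50 by curve fitting.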

Test [3] has as its target VEGFR-2 kinase (Homo sapiens (Human), UniProt P35968). In words: Assay of small molecular compounds for inhibiting the activity of VEGFR-2 kinase (LANCE TR-FRET). Format: biochemical. As to conditions: read-out: VEGFR2 IC50. An outline of the steps: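 LANCE TR-FRET with human VEGFR-2 (2× stock 0.5 nM) preincubated 30 min with compound (final 2500 to 0.042 nM, 11-point 3-fold), then ULight-JAK-1 (Tyr1023) peptide/ATP added (4× stocks 200 nM/40 μM). Reaction 60 min room temperature, 4% DMSO; IC50 from inhibition-rate curve.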

VEGFR-2 kinase, sequence (P35968 20-1356): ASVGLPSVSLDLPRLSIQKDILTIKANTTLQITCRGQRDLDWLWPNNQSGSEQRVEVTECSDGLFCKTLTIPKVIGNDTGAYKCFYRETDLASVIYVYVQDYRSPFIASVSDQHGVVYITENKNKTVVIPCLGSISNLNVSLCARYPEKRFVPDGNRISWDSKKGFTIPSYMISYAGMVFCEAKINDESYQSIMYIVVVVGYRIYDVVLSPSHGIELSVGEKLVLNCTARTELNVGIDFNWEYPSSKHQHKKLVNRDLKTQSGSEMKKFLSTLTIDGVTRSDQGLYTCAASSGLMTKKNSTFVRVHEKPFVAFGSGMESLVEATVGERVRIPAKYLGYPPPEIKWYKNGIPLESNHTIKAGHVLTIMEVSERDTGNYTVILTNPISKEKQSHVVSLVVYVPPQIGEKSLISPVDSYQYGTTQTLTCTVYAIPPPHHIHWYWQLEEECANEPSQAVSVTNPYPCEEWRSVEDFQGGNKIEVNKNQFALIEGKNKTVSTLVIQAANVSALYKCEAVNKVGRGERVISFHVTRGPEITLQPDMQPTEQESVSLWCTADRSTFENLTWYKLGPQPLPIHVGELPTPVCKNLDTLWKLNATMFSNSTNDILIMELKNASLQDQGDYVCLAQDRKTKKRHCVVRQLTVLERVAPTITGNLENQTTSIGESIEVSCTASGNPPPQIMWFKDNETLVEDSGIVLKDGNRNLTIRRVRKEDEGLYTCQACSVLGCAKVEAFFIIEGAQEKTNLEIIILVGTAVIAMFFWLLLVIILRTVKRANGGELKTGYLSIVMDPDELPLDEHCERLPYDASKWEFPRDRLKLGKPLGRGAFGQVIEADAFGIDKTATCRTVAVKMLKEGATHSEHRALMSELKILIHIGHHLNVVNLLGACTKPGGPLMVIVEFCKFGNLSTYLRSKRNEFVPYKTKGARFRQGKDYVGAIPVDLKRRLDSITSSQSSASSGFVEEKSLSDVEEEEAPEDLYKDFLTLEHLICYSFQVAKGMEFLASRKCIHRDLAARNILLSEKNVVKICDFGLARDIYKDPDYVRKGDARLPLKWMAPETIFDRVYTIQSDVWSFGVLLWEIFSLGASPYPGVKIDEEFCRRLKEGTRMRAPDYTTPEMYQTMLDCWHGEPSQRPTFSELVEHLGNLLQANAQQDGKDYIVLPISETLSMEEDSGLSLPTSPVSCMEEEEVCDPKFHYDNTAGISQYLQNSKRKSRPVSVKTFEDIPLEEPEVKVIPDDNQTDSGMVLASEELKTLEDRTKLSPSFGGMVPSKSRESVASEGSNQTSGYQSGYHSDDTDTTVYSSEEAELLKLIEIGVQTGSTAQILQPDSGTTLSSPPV
c-MET kinase, sequence (P08581 25-1390): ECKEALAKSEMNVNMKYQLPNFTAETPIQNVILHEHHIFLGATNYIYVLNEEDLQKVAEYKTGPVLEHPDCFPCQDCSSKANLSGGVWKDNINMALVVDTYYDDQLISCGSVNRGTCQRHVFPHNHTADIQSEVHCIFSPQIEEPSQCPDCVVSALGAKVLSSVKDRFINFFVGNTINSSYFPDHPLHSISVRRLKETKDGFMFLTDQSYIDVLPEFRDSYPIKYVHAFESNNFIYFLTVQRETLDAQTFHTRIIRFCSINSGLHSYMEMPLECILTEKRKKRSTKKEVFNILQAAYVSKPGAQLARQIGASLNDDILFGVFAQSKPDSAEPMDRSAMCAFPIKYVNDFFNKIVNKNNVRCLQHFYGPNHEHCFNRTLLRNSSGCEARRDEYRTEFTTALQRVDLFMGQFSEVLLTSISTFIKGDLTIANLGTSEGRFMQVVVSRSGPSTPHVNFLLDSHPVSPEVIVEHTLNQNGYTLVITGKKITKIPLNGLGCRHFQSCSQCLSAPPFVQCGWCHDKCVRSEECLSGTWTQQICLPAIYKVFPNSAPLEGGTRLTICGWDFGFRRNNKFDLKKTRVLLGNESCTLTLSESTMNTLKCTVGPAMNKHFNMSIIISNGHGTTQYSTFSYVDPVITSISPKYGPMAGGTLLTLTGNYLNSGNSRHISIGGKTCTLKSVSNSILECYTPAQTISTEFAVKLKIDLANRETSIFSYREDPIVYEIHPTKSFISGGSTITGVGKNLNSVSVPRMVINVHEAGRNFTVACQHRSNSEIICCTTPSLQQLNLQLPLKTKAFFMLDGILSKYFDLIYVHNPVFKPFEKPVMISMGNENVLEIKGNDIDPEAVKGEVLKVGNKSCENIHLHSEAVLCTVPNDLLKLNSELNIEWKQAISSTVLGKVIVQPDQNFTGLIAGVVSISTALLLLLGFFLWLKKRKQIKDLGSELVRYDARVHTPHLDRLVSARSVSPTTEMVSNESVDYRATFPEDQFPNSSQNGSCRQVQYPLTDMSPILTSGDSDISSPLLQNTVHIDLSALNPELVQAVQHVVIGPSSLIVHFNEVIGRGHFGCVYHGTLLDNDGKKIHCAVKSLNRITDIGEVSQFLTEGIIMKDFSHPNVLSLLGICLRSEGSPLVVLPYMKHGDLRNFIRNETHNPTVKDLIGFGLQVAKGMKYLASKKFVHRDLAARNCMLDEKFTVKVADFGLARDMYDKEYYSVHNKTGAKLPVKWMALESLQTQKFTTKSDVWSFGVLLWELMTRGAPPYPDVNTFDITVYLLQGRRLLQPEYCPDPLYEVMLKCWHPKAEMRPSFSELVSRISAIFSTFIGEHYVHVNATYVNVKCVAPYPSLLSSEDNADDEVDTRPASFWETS

As a reminder, the IC50 is the concentration that inhibits the measured activity by half. On to `CCOc1ccn(-c2ccc(Cl)cc2)c(=O)c1C(=O)Nc1ccc(Oc2ccnc3cc(OC)c4c(c23)OCCO4)c(F)c1` [Example 113, N-(3-fluoro-4-((5-methoxy-2,3-dihydro-[1,4]dioxino[2,3-f]quinolin-10-yl)oxy)phenyl)-2-oxo-4-ethoxy-1-(4-chlorophenyl)-1,2-dihydropyridin-3-carboxamide], for which the IC50 in test [1] is no more than 50 nM; in test [2], 50 to 200 nM; in test [3] it was 50 to 500 nM.
Turning to `CCn1cc(C(=O)Nc2ccc(Oc3ccnc4cc(OCCCN5CCCCC5)c5c(c34)OCCO5)c(F)c2)c(=O)n(-c2ccc(F)cc2)c1=O` [Example 41, N-(3-fluoro-4-((5-(3-(piperidin-1-yl)propoxy)-2,3-dihydro-[1,4]dioxino[2,3-f]quinolin-10-yl)oxy)phenyl)-3-(4-fluorophenyl)-1-ethyl-2,4-dioxo-1,2,3,4-tetrahydropyrimidine-5-carboxamide], the results for the half-maximal inhibitory concentration (IC50) in test [1], in test [2] and in test [3] were no more than 50 nM, 50 to 200 nM and 50 to 500 nM, respectively.
Taken in the same sequence, the figures for `COc1cc2nccc(Oc3ccc(NC(=O)c4cn(C)c(=O)n(-c5ccc(F)cc5)c4=O)cc3F)c2c2c1OCCO2` [Example 13, N-(3-fluoro-4-((5-methoxy-2,3-dihydro-[1,4]dioxino[2,3-f]quinolin-10-yl)oxy)phenyl)-3-(4-fluorophenyl)-1-methyl-2,4-dioxo-1,2,3,4-tetrahydropyrimidine-5-carboxamide] were no more than 50 nM, 50 to 200 nM and 500 to 5000 nM.
In the case of `Cn1cc(C(=O)Nc2ccc(Oc3ccnc4cc(OCCCN5CCCCC5)c5c(c34)OCCO5)c(F)c2)c(=O)n(-c2ccc(F)cc2)c1=O` [Example 39, N-(3-fluoro-4-((5-(3-(piperidin-1-yl)propoxy)-2,3-dihydro-[1,4]dioxino[2,3-f]quinolin-10-yl)oxy)phenyl)-3-(4-fluorophenyl)-1-methyl-2,4-dioxo-1,2,3,4-tetrahydropyrimidine-5-carboxamide], the IC50 in test [1] was no more than 50 nM; in test [2], 50 to 200 nM; in test [3] it was 50 to 500 nM.
Regarding `COc1cc2nccc(Oc3ccc(NC(=O)c4cn(CCF)c(=O)n(-c5ccc(F)cc5)c4=O)cc3F)c2c2c1OCCO2` [Example 101, N-(3-fluoro-4-((5-methoxy-2,3-dihydro-[1,4]dioxino[2,3-f]quinolin-10-yl)oxy)phenyl)-3-(4-fluorophenyl)-1-(2-fluoroethyl)-2,4-dioxo-1,2,3,4-tetrahydropyrimidine-5-carboxamide], the 50% inhibitory concentration (IC50) in test [1] is no more than 50 nM; in test [2] it was no more than 50 nM; in test [3], 500 to 5000 nM.
Turning to `COCCOc1cc2nccc(Oc3ccc(NC(=O)c4cn(C)c(=O)n(-c5ccc(F)cc5)c4=O)cc3F)c2c2c1OCCO2` [Example 42, N-(3-fluoro-4-((5-(2-methoxyethoxy)-2,3-dihydro-[1,4]dioxino[2,3-f]quinolin-10-yl)oxy)phenyl)-3-(4-fluorophenyl)-1-methyl-2,4-dioxo-1,2,3,4-tetrahydropyrimidine-5-carboxamide], the 50% inhibitory concentration (IC50) in test [1] is no more than 50 nM; in test [2], no more than 50 nM; in test [3], 50 to 500 nM.
Turning to `COc1ccn(-c2ccc(F)cc2)c(=O)c1C(=O)Nc1ccc(Oc2ncnc3cc(OCCCN4CCOCC4)c4c(c23)OCCO4)c(F)c1` [Example 5, N-(3-fluoro-4-((5-(3-morpholinopropoxy)-2,3-dihydro-[1,4]dioxino[2,3-f]quinazolin-10-yl)oxy)phenyl)-1-(4-fluorophenyl)-4-methoxy-2-oxo-1,2-dihydropyridine-3-carboxamide], the concentration for half-maximal inhibition (IC50) was no more than 50 nM in test [1], 50 to 200 nM in test [2] and 50 to 500 nM in test [3].
Taken in the same sequence, the figures for `COc1ccn(-c2ccc(F)cc2)c(=O)c1C(=O)Nc1ccc(Oc2ccnc3cc(OCCCN4CCCCC4)c4c(c23)OCCO4)c(F)c1` [Example 32, N-(3-fluoro-4-((5-(3-(piperidin-1-yl)propoxy)-2,3-dihydro-[1,4]dioxino[2,3-f]quinolin-10-yl)oxy)phenyl)-1-(4-fluorophenyl)-4-methoxy-2-oxo-1,2-dihydropyridine-3-carboxamide] were no more than 50 nM, 50 to 200 nM and no more than 50 nM.
